Laboratory results: patent publication US20140088144A1, “INHIBITING MICROBIAL INFECTIONS” (THE UNIVERSITY OF KANSAS, priority 2012, published 2014)

Assays:
VirF = VirF (Shigella flexneri, UniProt P0A2T1); assay: % Inhibition at 82.5 μM, VirF; type: cell-based; settings: for inhibition at 82.5 µM: read-out: % Inhibition at 82.5 μM VirF, 82.5 μM
RhaS [1] = molecular target: T1, RhaS (Escherichia coli, UniProt P09377); assay: % Inhibition at 82.5 μM, RhaS; type: cell-based, E. coli
Rns = Rns (Escherichia coli, UniProt P16114); assay: % Inhibition at 82.5 μM, Rns; type: cell-based, Enterotoxigenic E. coli; settings: for inhibition at 82.5 µM: read-out: % Inhibition at 82.5 μM Rns
Sequence of Rns (P16114 whole entry, the tested form may be a part): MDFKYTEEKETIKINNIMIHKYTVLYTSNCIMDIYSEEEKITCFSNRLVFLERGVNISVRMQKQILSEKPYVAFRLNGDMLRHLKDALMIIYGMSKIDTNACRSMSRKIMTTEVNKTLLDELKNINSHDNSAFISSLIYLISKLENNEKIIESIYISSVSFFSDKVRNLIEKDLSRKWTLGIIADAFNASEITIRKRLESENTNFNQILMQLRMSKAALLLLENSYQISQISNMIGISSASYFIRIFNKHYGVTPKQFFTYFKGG

RhaS [2] = molecular target: T1, RhaS; assay: In vivo dose-response, RhaS-activated rhaB-lacZ reporter fusion (β-galactosidase); type: cell-based, E. coli; settings: full-length RhaS, rhaB-lacZ
Source text: For dose-response studies, a rhaB-lacZ reporter strain was designed that allowed IPTG induction of RhaS or RhaS(163-278) expression from pHG165 (and thus rhaB-lacZ expression). The strain was constructed by introducing malP::lacIq into SME3000 via phage P1vir-mediated generalized transduction. First, SME3000 was transduced with Δcrp-3 zhc-511::Tn10 from SME1403, selecting for tetracycline resistance and screening for sorbitol deficiency (indicating Δcrp) using MacConkey sorbitol. SME3000 Acrp-3 zhc-511::Tn10 was transduced with crp^+ malP::lacI^q from SG22166, selecting for growth on minimal sorbitol and screening for maltose deficiency (indicating malP::lacI^q) using MacConkey maltose. Finally, SME3000 malP::lacI^q zhc-511::Tn10 was transduced with recA::cat from SME1048 by selecting for chloramphenicol resistance, to make strain SME3632.
(§1) The top hit identified in the screen was 1-ethyl-4-(nitromethyl)-3-quinolin-2-yl-4H-quinoline, Compound 2. The closely related compound, Compound 1,1-butyl-4-(nitromethyl)-3-quinolin-2-yl-4H-quinoline, was obtained from eMolecules, Inc. (Solana Beach, Calif.; catalog #3761-0013) or Princeton BioMolecular Research (Princeton, N.J.; catalog #OSSL—051168), with the Princeton named used here. […] Lysis/ONPG buffer (50 μL, as in Primary Screen) was added to each well and the plate was immediately placed into a PowerWave XS plate reader (BioTek Instruments, Inc., Winooski, Vt.), set to read the OD420 of each well every 15 min for 4 hr. […] Due to differences in kinetics of lacZ reporter expression, the rhaB-lacZ strains were analyzed at 4 hours and the hts-lacZ strain was analyzed at 1 hr. Percent activity was calculated for each condition as described above, using the single time point with appropriate OD420 levels for each strain. […] IC50 and maximal inhibition values were calculated using the XLfit add-in for Microsoft Excel (ID Business Solutions, Guildford, UK), and graphs were drawn using Prism (GraphPad, La Jolla, Calif.).

[3] = test system: LacI-repressed hts-lacZ fusion; assay: LacI-repressed hts-lacZ control reporter fusion (β-galactosidase); type: cell-based, E. coli; settings: hts-lacZ control (SME3359)
Source text: The control strain for the secondary high-throughput screen and subsequent experiments was SME3359, and carries the LacI-repressed fusion and LacI-expressing pHG165lacI. The fusion consists of lacZ under the control of an artificial promoter (Phts) with an induced expression level similar to that of the induced rhaBAD operon. Phts is regulated by Lad and induced with IPTG. The Phts core promoter elements include a near-consensus −35 sequence and a −10 sequence followed by a lacO1 operator sequence that overlaps the transcription start site with the same spacing as lacO1 at lacZYA. To construct the upstream half of Phts, oligo 2829 was annealed to oligo 2788 and the primers were extended using the Expand High Fidelity PCR System (Roche Applied Science, Indianapolis, Ind.). The downstream half of the Phts promoter was constructed by similarly annealing and extending oligos 2789 and 2790.
as §1, with “2.” for “2. The closely related compound, Compound 1,1-butyl-4-(nitromethyl)-3-quinolin-2-yl-4H-quinoline, was obtained from eMolecules, Inc. (Solana Beach, Calif.; catalog #3761-0013) or Princeton BioMolecular Research (Princeton, N.J.; catalog #OSSL—051168), with the Princeton named used here.”
In vivo dose-response assays were performed using a procedure described previously. […] Bacterial cultures were mixed with varying concentrations of SE-1 (2.2% DMSO, final), induced with 6.5 mM IPTG for 3 h at 37° C., lysed and β-galactosidase activity was measured. […] IC50 values were calculated and graphs were drawn using Prism (GraphPad, La Jolla, Calif.).

T1 sequence (P09377 whole entry): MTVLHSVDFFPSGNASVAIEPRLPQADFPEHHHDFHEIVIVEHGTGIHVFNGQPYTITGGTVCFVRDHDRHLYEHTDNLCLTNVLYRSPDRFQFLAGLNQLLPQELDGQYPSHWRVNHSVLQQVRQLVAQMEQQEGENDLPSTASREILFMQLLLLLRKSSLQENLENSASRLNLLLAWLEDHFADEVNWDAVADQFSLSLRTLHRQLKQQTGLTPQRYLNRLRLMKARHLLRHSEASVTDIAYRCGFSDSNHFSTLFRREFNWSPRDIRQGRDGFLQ
Sequence of VirF (P0A2T1 whole entry): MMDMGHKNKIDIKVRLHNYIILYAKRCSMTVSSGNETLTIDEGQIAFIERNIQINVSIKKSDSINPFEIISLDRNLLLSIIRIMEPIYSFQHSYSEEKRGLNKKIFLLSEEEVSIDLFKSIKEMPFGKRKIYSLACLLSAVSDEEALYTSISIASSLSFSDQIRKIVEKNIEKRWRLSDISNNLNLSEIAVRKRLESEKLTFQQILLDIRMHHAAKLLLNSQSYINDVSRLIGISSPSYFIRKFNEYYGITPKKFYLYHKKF

SMILES | inhibition at 82.5 µM (VirF) | inhibition at 82.5 µM (RhaS [1]) | inhibition at 82.5 µM (Rns) | % Inhibition at 82.5 μM VirF (VirF; 82.5 μM) | % Inhibition at 82.5 μM RhaS (RhaS [1]) | % Inhibition at 82.5 μM Rns (Rns; 82.5 μM) | inhibition of the RhaS-activated fusion (RhaS [2]) | inhibition of the LacI-repressed fusion [3]
CCCCN1C=C(c2cccc(C)n2)C(C#N)c2ccccc21 (centres unmarked) [Compound A03] | 0% | 40% | 10% |  |  |  |  | 
CCOC(=O)CN1C=C(c2ccc3ccccc3n2)C(C[N+](=O)[O-])c2ccccc21 (centres unmarked) [Compound A3] | 10% | 0% | 30% |  |  |  |  | 
CN1C=C(c2ccc3ccccc3n2)C(c2c(-c3ccccc3)[nH]c3ccccc23)c2ccccc21 (centres unmarked) [Compound D2] | 40% | 10% | 10% |  |  |  |  | 
CCCCN1C=C(c2ccc3ccccc3n2)C(C)c2ccccc21 (centres unmarked) [Compound A23] | 30% | 0% | 10% |  |  |  |  | 
Clc1ccc(C[n+]2cc(-c3ccc4ccccc4n3)cc3ccccc32)cc1.[Br-] [Compound I01] |  |  |  | 50% | 50% | 50% |  | 
CCCCN1C=C(c2ccc3ccccc3n2)Cc2ccccc21 [Compound A21] | 70% | 60% | 80% |  |  |  |  | 
C=CCCC[n+]1cc(-c2ccc3ccccc3n2)cc2ccccc21 [Compound A25] | 100% | 80% | 100% |  |  |  |  | 
CCN1C=C(c2ccc3ccccc3n2)C(C[N+](=O)[O-])c2ccccc21 (centres unmarked) [Compound 2, 1-ethyl-4-(nitromethyl)-3-quinolin-2-yl-4H-quinoline] | 100% | 90% | 60% |  |  |  | particularly robust, dose-dependent inhibition | substantially less inhibition
C[n+]1ccccc1/C=C/c1ccc(Br)cc1 [JS03] | 50% | 20% | 10% |  |  |  |  | 
Clc1ccc(C[n+]2cc(-c3ccc4ccccc4n3)cc3ccccc32)cc1 [Compound I03] | 60% | 60% | 50% |  |  |  |  | 
CCCCCCCCC[n+]1cc(-c2ccc3ccccc3n2)cc2ccccc21 [Compound I13] | 100% | 100% | 100% |  |  |  |  | 
O=[N+]([O-])CC1C(c2ccc3ccccc3n2)=CN(Cc2ccc(Cl)cc2)c2ccccc21 (centres unmarked) [Compound A08] | 40% | 40% | 30% |  |  |  |  | 
C[n+]1sc(Nc2ccccc2)nc1-c1ccccc1 [JS01] | 100% | 100% | 100% |  |  |  |  | 
CCN1C=C(c2ccc3ccccc3n2)C(C#N)c2ccccc21 (centres unmarked) [Compound A1] | 20% | 30% | 30% |  |  |  |  | 
CCCC[n+]1cc(-c2ccc3ccccc3c2)cc2ccccc21 [Compound I14] | 100% | 90% | 100% |  |  |  |  | 
CCCCN1C=C(c2ccc3ccccc3n2)C(C#N)c2ccccc21 (centres unmarked) [Compound A01] | 20% | 30% | 20% |  |  |  |  | 
CCCCCC[n+]1cc(-c2ccc3ccccc3n2)cc2ccccc21 [Compound I12] | 100% | 90% | 100% |  |  |  |  | 
O=[N+]([O-])CC1C(c2ccc3ccccc3n2)=CN(Cc2ccccc2)c2ccccc21 (centres unmarked) [Compound D3] | 70% | 60% | 60% |  |  |  |  | 
CC(C)[n+]1cc(-c2ccc3ccccc3n2)cc2ccccc21 [Compound I10] | 100% | 80% | 90% |  |  |  |  | 
CCCCN1C=C(c2ccc3ccccc3n2)C(C[N+](=O)[O-])c2ccccc21 (centres unmarked) [Compound A07] | 90% | 90% | 90% |  |  |  |  | 
CCCC[n+]1cc(-c2ccc3ccccc3n2)cc2ccccc21 [Compound I02] | 90% | 90% | 90% |  |  |  |  | 
CN1C=C(c2ccc3ccccc3n2)C(C#N)c2ccccc21 (centres unmarked) [Compound C4] | 90% | 70% | 80% |  |  |  |  | 
CCOC(=O)C(C(=O)OCC)C1C(c2ccc3ccccc3n2)=CN(C)c2ccccc21 (centres unmarked) [Compound A2] | 100% | 80% | 80% |  |  |  |  | 
CCC[n+]1cc(-c2ccc3ccccc3n2)cc2ccccc21 [Compound I11] | 100% | 80% | 90% |  |  |  |  | 
Cc1cccc(C2=CN(Cc3ccc(Cl)cc3)c3ccccc3C2C[N+](=O)[O-])n1 (centres unmarked) [Compound A10] | 10% | 30% | 0% |  |  |  |  | 
CN1C=C(c2ccc3ccccc3n2)C(C[N+](=O)[O-])c2ccccc21 (centres unmarked) [Compound E1] | 100% | 90% | 80% |  |  |  |  | 
C[n+]1cc(-c2ccc3ccccc3n2)cc2ccccc21 [Compound A24] | 100% | 94% | 90% |  |  |  |  | 
CCCCN1C=C(c2cccc(C)n2)C(C[N+](=O)[O-])c2ccccc21 (centres unmarked) [Compound A09] | 10% | 50% | 0% |  |  |  |  | 
